Laboratory results as given in patent publication US20250099634A1, “METHOD OF TREATING CANCER” (Novartis AG, priority 2023, published 2025).

Assays:
[1] = system: Grade 2 and Grade 3 advanced GEP-NET; test: NETTER-2 best overall response, ORR and DCR, central review using RECIST 1.1; type: in vivo, human; conditions: for ORR: central assessment
Description: Objective Response Rate (ORR) will be calculated as the rate of patients with a best overall response of partial response (PR) or complete response (CR). Response duration will be calculated from the time of initial response until documented tumor progression. The Duration of Response (DOR) is defined as the time from initially meeting the criteria for response (CR or PR) until the time of progression by RECIST or death due to underlying disease. DOR will be reported descriptively for each group without comparison between groups.
Overall response rate (ORR) is defined as the proportion of subjects with best overall response (BOR) of complete response (CR) or partial response (PR), as per central review and according to RECIST 1.1.
ORR will be calculated based on the FAS and according to the ITT principle. ORR and its 95% confidence interval will be presented by treatment group. The Cochran-Mantel-Haenszel chi-square test, stratified by the randomization stratification factors, will be used to compare ORR between the two treatment groups, at the 1-sided 2.5% level of significance. As a supportive analysis, ORR as per local review will be presented by treatment group, along with 95% confidence intervals.
More precisely, it counts the presence of at least one confirmed CR or confirmed PR or SD. The DCR will be calculated based on FAS according to the ITT principle. DCR and its 95% confidence interval will be presented by treatment group. The Cochrane-Mantel-Haenszel chi-square test, stratified by the randomization stratification factors, will be used to compare DCR between the two treatment groups, at the one-sided 2.5% level of significance. The p-value to be generated using the Cochrane-Mantel-Haenszel chi-square test is considered nominal, and not to be considered confirmatory as it is not part of the testing strategy. The SAP will advise on how to proceed in case of few events in any stratum.

[2] = NETTER-2 serious adverse events in the randomized treatment period (Safety Set)
Description: All adverse events (AEs), whether or not spontaneously reported by the patient, will be recorded starting from the signing of the ICF until the end of the Treatment Phase. Safety summaries (tables, figures) include only data from the on-treatment period with the exception of baseline data which will also be summarized where appropriate (e.g. change from baseline summaries). In addition, a separate summary for death including on treatment and post treatment deaths will be provided. In particular, summary tables for adverse events (AEs) will summarize only on-treatment events, with a start date during the on-treatment period (treatment-emergent AEs).
Separate summaries will be provided for study medication related adverse events, death, serious adverse events, other significant adverse events leading to discontinuation and adverse events leading to dose adjustment.

[3] = central review, Full Analysis Set
[4] = All grades, randomized treatment period, Safety Set
[5] = Grade >=3, randomized treatment period, Safety Set
[6] = randomized treatment period, Safety Set

C[C@@H](O)[C@@H]1NC(=O)[C@H](CCCCN)NC(=O)[C@@H](Cc2c[nH]c3ccccc23)NC(=O)[C@H](Cc2ccccc2)NC(=O)[C@@H](NC(=O)[C@H](N)Cc2ccccc2)CSSC[C@@H](C(=O)N[C@H](CO)[C@@H](C)O)NC1=O [Octreotide LAR, octreotide]
ORR ([1]; listed as High-dose Octreotide): 9.3% | ORR ([1]; listed as high-dose Octreotide): 9.3% (3.8%, 18.3%) for Lutathera vs. high-dose | Best Overall Response: Complete Response (CR) [1, 3]: 0 n (%) | Best Overall Response: Non-CR/Non-PD [1, 3]: 1 (1.3) n (%) | Best Overall Response: Partial Response (PR) [1, 3]: 7 (9.3) n (%) | Best Overall Response: Progressive Disease (PD) [1, 3]: 14 (18.7) n (%) | Best Overall Response: Unknown [1, 3]: 11 (14.7) n (%) | Overall Response Rate (ORR: CR + PR) [1, 3]: 7 (9.3) n (%) | Fatal SAEs [2, 4]: 2 (2.7) n (%) | Fatal SAEs Related to Any Treatment [2, 4]: 0 n (%) | Fatal SAEs Related to Octreotide [2, 4]: 0 n (%) | SAEs Related to Any Treatment [2, 4]: 1 (1.4) n (%) | SAEs Related to Octreotide [2, 4]: 1 (1.4) n (%) | Serious adverse event: Abdominal pain [2, 4]: 0 n (%) | Serious adverse event: Abdominal sepsis [2, 4]: 1 (1.4) n (%) | Serious adverse event: Acute coronary syndrome [2, 4]: 1 (1.4) n (%) | Serious adverse event: Acute kidney injury [2, 4]: 1 (1.4) n (%) | Serious adverse event: Anaemia [2, 4]: 1 (1.4) n (%) | Serious adverse event: Ascites [2, 4]: 1 (1.4) n (%) | Serious adverse event: Blood bilirubin increased [2, 4]: 1 (1.4) n (%) | Serious adverse event: Carcinoid heart disease [2, 4]: 1 (1.4) n (%) | Serious adverse event: Carcinoid syndrome [2, 4]: 1 (1.4) n (%) | Serious adverse event: Diarrhoea [2, 4]: 1 (1.4) n (%) | Serious adverse event: Femur fracture [2, 4]: 1 (1.4) n (%) | Serious adverse event: Gastroenteritis [2, 4]: 1 (1.4) n (%) | Serious adverse event: Gastrointestinal stoma complication [2, 4]: 0 n (%) | Serious adverse event: Generalised oedema [2, 4]: 1 (1.4) n (%) | Serious adverse event: Hip fracture [2, 4]: 1 (1.4) n (%) | Serious adverse event: Hyperglycaemia [2, 4]: 1 (1.4) n (%) | Serious adverse event: Hypertension [2, 4]: 1 (1.4) n (%) | Serious adverse event: Hypoalbuminaemia [2, 4]: 1 (1.4) n (%) | Serious adverse event: Intestinal obstruction [2, 4]: 1 (1.4) n (%) | Serious adverse event: Jaundice [2, 4]: 1 (1.4) n (%) | Serious adverse event: Lower gastrointestinal haemorrhage [2, 4]: 1 (1.4) n (%) | Serious adverse event: Metabolic encephalopathy [2, 4]: 1 (1.4) n (%) | Serious adverse event: Oedema peripheral [2, 4]: 1 (1.4) n (%) | Serious adverse event: Pleurisy [2, 4]: 1 (1.4) n (%) | Serious adverse event: Pyrexia [2, 4]: 0 n (%) | Serious adverse event: Small intestinal obstruction [2, 4]: 0 n (%) | Serious adverse event: Tumour lysis syndrome [2, 4]: 1 (1.4) n (%) | Fatal SAEs [2, 5]: 2 (2.7) n (%) | Fatal SAEs Related to Any Treatment [2, 5]: 0 n (%) | Fatal SAEs Related to Octreotide [2, 5]: 0 n (%) | SAEs Related to Any Treatment [2, 5]: 1 (1.4) n (%) | SAEs Related to Octreotide [2, 5]: 1 (1.4) n (%) | Serious adverse event: Abdominal pain [2, 5]: 0 n (%) | Serious adverse event: Abdominal sepsis [2, 5]: 1 (1.4) n (%) | Serious adverse event: Acute coronary syndrome [2, 5]: 0 n (%) | Serious adverse event: Acute kidney injury [2, 5]: 1 (1.4) n (%) | Serious adverse event: Anaemia [2, 5]: 1 (1.4) n (%) | Serious adverse event: Ascites [2, 5]: 1 (1.4) n (%) | Serious adverse event: Blood bilirubin increased [2, 5]: 1 (1.4) n (%) | Serious adverse event: Carcinoid heart disease [2, 5]: 1 (1.4) n (%) | Serious adverse event: Carcinoid syndrome [2, 5]: 1 (1.4) n (%) | Serious adverse event: Diarrhoea [2, 5]: 1 (1.4) n (%) | Serious adverse event: Femur fracture [2, 5]: 0 n (%) | Serious adverse event: Gastroenteritis [2, 5]: 1 (1.4) n (%) | Serious adverse event: Gastrointestinal stoma complication [2, 5]: 0 n (%) | Serious adverse event: Generalised oedema [2, 5]: 1 (1.4) n (%) | Serious adverse event: Hip fracture [2, 5]: 1 (1.4) n (%) | Serious adverse event: Hyperglycaemia [2, 5]: 1 (1.4) n (%) | Serious adverse event: Hypertension [2, 5]: 1 (1.4) n (%) | Serious adverse event: Hypoalbuminaemia [2, 5]: 1 (1.4) n (%) | Serious adverse event: Intestinal obstruction [2, 5]: 1 (1.4) n (%) | Serious adverse event: Jaundice [2, 5]: 1 (1.4) n (%) | Serious adverse event: Lower gastrointestinal haemorrhage [2, 5]: 1 (1.4) n (%) | Serious adverse event: Metabolic encephalopathy [2, 5]: 1 (1.4) n (%) | Serious adverse event: Oedema peripheral [2, 5]: 1 (1.4) n (%) | Serious adverse event: Pleurisy [2, 5]: 1 (1.4) n (%) | Serious adverse event: Pyrexia [2, 5]: 0 n (%) | Serious adverse event: Small intestinal obstruction [2, 5]: 0 n (%) | Serious adverse event: Tumour lysis syndrome [2, 5]: 1 (1.4) n (%) | Incidence of SAEs: Small intestinal obstruction ([2]; most frequent SAE, summary table): 0 (%) | Serious AEs ([2]; randomized treatment period): 20.5% | Serious AEs, Treatment-related ([2]; randomized treatment period): 1.4% | SAE with fatal outcome: Blood bilirubin increased [2, 6]: 0 n (%) | SAE with fatal outcome: Diarrhoea [2, 6]: 1 (1.4) n (%) | SAE with fatal outcome: Dyspnoea [2, 6]: 0 n (%) | SAE with fatal outcome: Intestinal perforation [2, 6]: 0 n (%) | SAE with fatal outcome: Tumor Lysis syndrome [2, 6]: 1 (1.4) n (%) | SAEs with fatal outcome [2, 6]: 2 (2.7) n (%) | SAEs with fatal outcome reported in subjects with primary reason for death = Disease under Study [2, 6]: 2 (2.7) n (%)
